Holding throughout (settings): COS-7 membranes
The target in one assay is T1, α1b-AR (Homo sapiens, UniProt P35368).
T1 construct: expressed in transfected cells; host or cells: COS-7 cells (African Green monkey kidney), membranes
T1 sequence (P35368 1-520): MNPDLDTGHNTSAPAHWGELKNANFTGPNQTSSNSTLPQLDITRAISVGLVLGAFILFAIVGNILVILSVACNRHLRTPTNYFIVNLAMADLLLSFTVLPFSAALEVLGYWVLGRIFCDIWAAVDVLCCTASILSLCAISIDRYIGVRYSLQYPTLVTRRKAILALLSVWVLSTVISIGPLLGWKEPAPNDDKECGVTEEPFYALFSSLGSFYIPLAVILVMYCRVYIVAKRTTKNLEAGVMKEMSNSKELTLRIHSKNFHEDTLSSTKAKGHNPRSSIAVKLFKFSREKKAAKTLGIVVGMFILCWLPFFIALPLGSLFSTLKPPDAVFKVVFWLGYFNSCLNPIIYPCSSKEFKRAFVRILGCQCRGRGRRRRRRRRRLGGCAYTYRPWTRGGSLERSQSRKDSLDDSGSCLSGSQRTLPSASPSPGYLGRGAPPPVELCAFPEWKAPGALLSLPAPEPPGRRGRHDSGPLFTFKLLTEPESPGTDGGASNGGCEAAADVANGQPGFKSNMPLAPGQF
As to the kind of experiment: α1-Adrenergic Receptor Binding Assay, 125I-HEAT radio-ligand binding, transfected COS-7 cell membranes, α1b subtype. The method, then:
(§1) Membranes were prepared from COS-7 cells (African Green monkey kidney SV40-transformed cells) that had been transfected with one of the three α1-AR subtypes by the following method: COS cells from ten 100 mm tissue culture plates were scraped into a 5 ml volume of TE (a mixture of 50 mM tris(hydroxymethyl)aminomethane hydrochloride (Tris-HCl) and 5 mM ethylenediaminetetraacetic acid (EDTA) at pH 7.4). The cell suspension was disrupted with a Brinkman Polytron (at a setting of 8) for 10 sec. The disrupted cells were centrifuged at 1000×g for 10 min at 4° C. Supernatants were centrifuged at 34,500×g for 20 min at 4° C. The membrane pellets were suspended in a 2 ml volume of TNE (a mixture of 50 mM Tris-HCl, 5 mM EDTA and 150 mM NaCl at pH7.4). An aliquot of the membrane suspension was stored at −70° C. until use. The protein concentration was determined using a BioRad “DC” protein assay kit following membrane solubilization with Triton X-100.
(§2) Triplicate determinations of radio-ligand binding in the presence of increasing concentrations of testing compound were made. The reagents were added to 96-well polypropylene plate wells. Each assay well contained 140 μL TNE, 25 μL 125′-2-(β-4-hydroxyphenyl)ethylaminomethyltetralone (^125I-HEAT) (specific activity 2200 Ci/mmol, Dupont-New England Nuclear, […] final), 10 μL testing compound dissolved in dimethyl sulfoxide (DMSO) ([…] to 10 μM in half-log increments, final), and 25 μL appropriate α1-AR membrane subtype suspension in TNE (0.5 ng/μL for the α1a and α1b subtypes and 13 ng/μL for the α1d subtype). The plate was incubated at rt for 1 hr. The contents of the wells were filtered through a glass filter (type C) (GF/C) membrane Unifilter plate (Packard Instruments) using the Packard Filtermate cell harvester. The filter plates were dried in a vacuum oven for 30 min at 40° C. 25 μL Microscint 20 liquid scintillation fluid (Packard Instuments) was added to each well. The radioactive content was analyzed in the TopCount microplate scintillation counter (Packard Instruments).
(§3) The Ki values (in nM) shown in Table 1 were determined using GraphPad Prism software.

The next assay concerns the target T2, α1a-AR (Homo sapiens, UniProt P35348).
T2 construct: expressed in transfected cells; host or cells: COS-7 cells (African Green monkey kidney), membranes
T2 sequence (P35348 1-466): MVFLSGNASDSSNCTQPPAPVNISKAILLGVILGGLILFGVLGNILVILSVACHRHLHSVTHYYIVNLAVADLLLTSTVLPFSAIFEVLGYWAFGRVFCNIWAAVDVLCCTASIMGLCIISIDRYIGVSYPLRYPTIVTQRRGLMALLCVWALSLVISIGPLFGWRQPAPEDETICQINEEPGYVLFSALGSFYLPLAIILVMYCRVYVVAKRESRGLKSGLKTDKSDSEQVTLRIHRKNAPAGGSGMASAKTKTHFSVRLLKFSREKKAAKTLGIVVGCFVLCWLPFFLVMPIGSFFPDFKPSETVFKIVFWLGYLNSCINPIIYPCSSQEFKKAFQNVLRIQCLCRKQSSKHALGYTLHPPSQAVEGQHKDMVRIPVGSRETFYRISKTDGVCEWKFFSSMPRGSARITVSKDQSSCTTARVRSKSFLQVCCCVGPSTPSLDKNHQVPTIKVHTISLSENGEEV
As to the kind of experiment: α1-Adrenergic Receptor Binding Assay, 125I-HEAT radio-ligand binding, transfected COS-7 cell membranes, α1a subtype. On the procedure:
as §1, §2, §3

In a further assay the target is T3, α1d-AR (Homo sapiens, UniProt P25100).
T3 construct: expressed in transfected cells; host or cells: COS-7 cells (African Green monkey kidney), membranes
T3 sequence (P25100 1-572): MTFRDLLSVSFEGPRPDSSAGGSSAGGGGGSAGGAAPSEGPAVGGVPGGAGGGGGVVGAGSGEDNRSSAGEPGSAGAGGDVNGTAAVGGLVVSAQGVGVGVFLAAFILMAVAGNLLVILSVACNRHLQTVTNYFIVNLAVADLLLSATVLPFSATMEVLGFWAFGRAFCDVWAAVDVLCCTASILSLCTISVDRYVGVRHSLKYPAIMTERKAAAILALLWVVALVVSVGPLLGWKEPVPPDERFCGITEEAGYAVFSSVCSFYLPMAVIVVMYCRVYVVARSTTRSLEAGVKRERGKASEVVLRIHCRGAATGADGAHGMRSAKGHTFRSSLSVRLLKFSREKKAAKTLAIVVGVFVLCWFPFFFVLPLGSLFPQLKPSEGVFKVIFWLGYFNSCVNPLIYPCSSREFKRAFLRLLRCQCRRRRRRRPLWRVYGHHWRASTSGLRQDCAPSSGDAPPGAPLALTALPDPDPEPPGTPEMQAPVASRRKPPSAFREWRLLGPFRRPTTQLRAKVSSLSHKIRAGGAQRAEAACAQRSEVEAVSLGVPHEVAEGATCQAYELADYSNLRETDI
Kind of assay: α1-Adrenergic Receptor Binding Assay, 125I-HEAT radio-ligand binding, transfected COS-7 cell membranes, α1d subtype. The method, then: as §1, §2, §3

Setting [1] is: average value, read-out: Alpha 1 Ki α1b (1) Average Value.
[2] abbreviates: individual values, read-out: Alpha 1 Ki α1b (2) Individual Values.
Where [3] appears, read: average value, read-out: Alpha 1 Ki α1a (1) Average Value.
The mark [4] stands for this setting: individual values, read-out: Alpha 1 Ki α1a (2) Individual Values.
Where [5] appears, read: average value, read-out: Alpha 1 Ki α1d (1) Average Value.
[6] abbreviates: individual values, read-out: Alpha 1 Ki α1d (2) Individual Values.

Our source for the Ki values is patent US20080221116A1, “ISOXAZOLINE ALPHA 1a/1d ADRENORECEPTOR ANTAGONISTS” (priority 2006, published 2008).

Several values for one entry are separate records, joined by “and”; a condition that tells them apart may be missing. Equal entries are not always repeated. Where two headings read alike, the source gives them in different places.

In general, Ki refers to the dissociation constant of the complex between target and ligand, obtained from inhibition or displacement. With `CC(C)Oc1ccccc1N1CCN(CC2CC(C(=O)N3CCCc4ccccc43)=NO2)CC1` (stereo not drawn) [Compound 26, (3,4-dihydro-2H-quinolin-1-yl)-{5-[4-(2-isopropoxy-phenyl)-piperazin-1-ylmethyl]-4,5-dihydro-isoxazol-3-yl}-methanone], the inhibition constant (Ki) at α1b-AR (setting [1]) was determined as 258 nM; on α1b-AR (setting [2]), 258 nM; at α1a-AR (setting [3]) it was 6.7 nM; at α1a-AR (setting [4]), 6.7 nM; on α1d-AR (setting [5]) it was 11 nM; on α1d-AR (setting [6]), 11 nM.

As for `CC(C)Oc1ccccc1N1CCN(CC2CC(C(=O)N3CCC(Oc4ccc(Cl)cc4)CC3)=NO2)CC1` (stereo not drawn) [Compound 34, [4-(4-chloro-phenoxy)-piperidin-1-yl]-{5-[4-(2-isopropoxy-phenyl)-piperazin-1-ylmethyl]-4,5-dihydro-isoxazol-3-yl}-methanone], the Ki at α1b-AR (setting [1]) stood at 255 nM; at α1b-AR (setting [2]) it was 255 nM; at α1a-AR (setting [3]) it was 40 nM; on α1a-AR (setting [4]) it was 40 nM; on α1d-AR (setting [5]), 27 nM; on α1d-AR (setting [6]), 27 nM.

For the compound `CC(C)Oc1ccccc1N1CCN(CC2CC(C(=O)N3CC(C)(C)c4cc(Br)ccc43)=NO2)CC1` (single isomer, unassigned) [Compound 43, (5-bromo-3,3-dimethyl-2,3-dihydro-indol-1-yl)-{(5S*)-5-[4-(2-isopropoxy-phenyl)-piperazin-1-ylmethyl]-4,5-dihydro-isoxazol-3-yl}-methanone], the Ki is 1080 nM at α1b-AR (setting [1]); 1080 nM at α1b-AR (setting [2]); 317 nM at α1a-AR (setting [3]); 317 nM on α1a-AR (setting [4]); 104 nM on α1d-AR (setting [5]); 104 nM at α1d-AR (setting [6]).

Turning to `CC(C)Oc1ccccc1N1CCN(CC2CC(C(=O)N3CCc4ccccc43)=NO2)CC1` (single isomer, unassigned) [Compound 36, (2,3-dihydro-indol-1-yl)-{(5S*)-5-[4-(2-isopropoxy-phenyl)-piperazin-1-ylmethyl]-4,5-dihydro-isoxazol-3-yl}-methanone], the Ki on α1b-AR (setting [1]) came out at 191 nM; on α1a-AR (setting [3]), 38.2 nM; at α1d-AR (setting [5]), 90.2 nM.

With `Cc1ccc2c(c1)CCN2C(=O)C1=NOC(CN2CCN(c3ccccc3OC(C)C)CC2)C1` (stereo not drawn) [Compound 25, {5-[4-(2-isopropoxy-phenyl)-piperazin-1-ylmethyl]-4,5-dihydro-isoxazol-3-yl}-(5-methyl-2,3-dihydro-indol-1-yl)-methanone], the Ki is 71 nM at α1b-AR (setting [1]); 71 nM at α1b-AR (setting [2]); 3.5 nM at α1a-AR (setting [3]); 3.5 nM on α1a-AR (setting [4]); 0.12 nM on α1d-AR (setting [5]); 0.12 nM at α1d-AR (setting [6]).

As for `CC(C)Oc1ccccc1N1CCN(CC2CC(C(=O)N3CCC(Oc4ccccc4)CC3)=NO2)CC1` (single isomer, unassigned) [Compound 39, {(5S*)-5-[4-(2-isopropoxy-phenyl)-piperazin-1-ylmethyl]-4,5-dihydro-isoxazol-3-yl}-(4-phenoxy-piperidin-1-yl)-methanone], the Ki at α1b-AR (setting [1]) is 217 nM; on α1b-AR (setting [2]), 223 nM and 210 nM; at α1a-AR (setting [3]) it was 1.6 nM; on α1a-AR (setting [4]), 1.4 nM and 1.8 nM; at α1d-AR (setting [5]), 8.55 nM; on α1d-AR (setting [6]) it was 10.4 nM and 6.7 nM.

Take `CC(C)Oc1ccccc1N1CCN(CC2CC(C(=O)N3CCc4cc(F)ccc43)=NO2)CC1` (stereo not drawn) [Compound 20, (5-fluoro-2,3-dihydro-indol-1-yl)-{5-[4-(2-isopropoxy-phenyl)-piperazin-1-ylmethyl]-4,5-dihydro-isoxazol-3-yl}-methanone]: the Ki was 112 nM on α1b-AR (setting [1]); 97.2 nM and 126 nM at α1b-AR (setting [2]); 2.23 nM on α1a-AR (setting [3]); 1.35 nM and 3.1 nM at α1a-AR (setting [4]); 0.623 nM at α1d-AR (setting [5]); 0.145 nM and 1.1 nM at α1d-AR (setting [6]).

For `CC(C)Oc1ccccc1N1CCN(CC2CC(C(=O)N3CCCCC3)=NO2)CC1` (stereo not drawn) [Compound 12, {5-[4-(2-isopropoxy-phenyl)-piperazin-1-ylmethyl]-4,5-dihydro-isoxazol-3-yl}-piperidin-1-yl-methanone], the Ki is 249 nM on α1b-AR (setting [1]); 334 nM and 174 nM and 239 nM on α1b-AR (setting [2]); 1.81 nM at α1a-AR (setting [3]); 1.02 nM and 1.7 nM and 2.7 nM at α1a-AR (setting [4]); 17.8 nM on α1d-AR (setting [5]); 29 nM and 18 nM and 6.26 nM at α1d-AR (setting [6]).

Regarding `CC(C)Oc1ccccc1N1CCN(CC2CC(C(=O)N3CCC(Cc4ccccc4)CC3)=NO2)CC1` (stereo not drawn) [Compound 27, (4-benzyl-piperidin-1-yl)-{5-[4-(2-isopropoxy-phenyl)-piperazin-1-ylmethyl]-4,5-dihydro-isoxazol-3-yl}-methanone], the Ki was found to be 219 nM at α1b-AR (setting [1]); 219 nM at α1b-AR (setting [2]); 11.6 nM at α1a-AR (setting [3]); 11.6 nM at α1a-AR (setting [4]); 6.5 nM on α1d-AR (setting [5]); 6.5 nM at α1d-AR (setting [6]).

With `CC(C)Oc1ccccc1N1CCN(CC2CC(CN3CCCCC3)=NO2)CC1` (stereo not drawn) [Compound 5, 1-(2-isopropoxy-phenyl)-4-(3-piperidin-1-ylmethyl-4,5-dihydro-isoxazol-5-ylmethyl)-piperazine], the Ki on α1b-AR (setting [1]) is 5000 nM; on α1b-AR (setting [2]), 5000 nM; on α1a-AR (setting [3]), 10 nM; at α1a-AR (setting [4]), 10 nM; on α1d-AR (setting [5]), 178 nM; on α1d-AR (setting [6]) it was 178 nM.

Take `CC(C)Oc1ccccc1N1CCN(CC2CC(C(=O)N3CCC(Oc4ccccn4)CC3)=NO2)CC1` (stereo not drawn) [Compound 32, {5-[4-(2-isopropoxy-phenyl)-piperazin-1-ylmethyl]-4,5-dihydro-isoxazol-3-yl}-[4-(pyridin-2-yloxy)-piperidin-1-yl]-methanone]: the Ki was determined as 264 nM on α1b-AR (setting [1]); 264 nM on α1b-AR (setting [2]); 41.7 nM at α1a-AR (setting [3]); 41.7 nM at α1a-AR (setting [4]); 44.6 nM on α1d-AR (setting [5]); 44.6 nM at α1d-AR (setting [6]).
